In patent US20260053932A1, “COMPOUNDS AND METHODS FOR THE TARGETED DEGRADATION OF ANDROGEN RECEPTOR AND ASSOCIATED METHODS OF USE” (Arvinas Operations, Inc., priority 2020, published 2026) one finds DC50 data, which are given here for 13 compounds.

The assay concerns androgen receptor (AR) in LNCaP and/or VCaP cells. The assay is described as follows: Androgen Receptor ELISA assay (AR degradation). In kind it is cell-based. The following applies: degradation of AR ELISA in LNCaP and/or VCaP cells; Table 2C; read-out: DC50 Code*. The method, then: Androgen Receptor ELISA Assay. […] The protocols used with VCaP cells are described below.
The cells were grown for a minimum of 3 days.
(2)(i) A 10× stock plate in media was made; (ii) 2.5 μL of the 1000× stock was transferred to a new 10× stock plate (use 12 channel pipet, start at A (DMSO control) work thru H. When 247.5 µL of media was added to this plate, it served as a 10× stock; (iii) made media+1 nM R1881 for making 10× stock plate; (iv) added 247.5 μL of media with 1 nM R1881 to each well of the 10× stock plate, mix.
Then 22 μL of 10× stock was added to cells and incubated for 5 hours. […] Media was aspirated, and 100 μL 1× cell lysis buffer/well was added. The cells were placed on a shaker located in a cold room for 10 minutes and shaken at speed 7. The lysate mixture was mix and 20 μL transferred to 100 μl of Diluent in ELISA plate (0.15 μg/ml-[…]). The lysate-diluent mixture was store at 4° C. overnight on a shaker located in a cold room at speed 5 (gentle swirl).
The lysate-diluent mixture was shaken for 30 minutes at 37° C. The mouse AR antibody, anti-mouse antibody, TMB, and STOP solution were allowed to come to room temperature. The 1×ELISA buffer included in kit was made and loaded in reservoir. Media from the plate was discarded, the ELISA plate was tapped hard on paper towel, and washed 4×200 μl ELISA wash buffer using a plate washer for the first three washes and an eight channel aspirator for the fourth wash to more thoroughly aspirate the solution.
Next, 100 μL/well of mouse AR detection Ab was added; the plate was covered and shaken at 37° C. for 1 hour; media was discarded from the plates, the plates tapped on a paper towel and washed four times with 200 μL ELISA wash buffer with a plate washer for the first three washes and an eight channel aspirator for the fourth wash; 100 μL/well of anti-mouse—HRP conjugated Ab (comes with the kit) was added; the plates was cover and shaken at 37° C. for 30 minutes; the TMB reagent was allowed to come to room temperature; the media from the plate was discarded, the plates tapped on paper towel, and washed four times with 200 μL ELISA wash buffer with a plate washer for the first three washes and an eight channel aspirator for the fourth wash; plates were tapped on paper towel; 100 μL TMB was added to each well and the plate shaken for 2 minutes—while watching color. STOP solution (100 μL) was added when light blue color developed.
Data was analyzed and plotted using GraphPad Prism software. Exemplary compounds of Tables 1A, 1B, and 1C were assayed and the data shown below in Tables 2A, 2B, and 2C. DC50 (nM) categories (degradation of AR ELISA in LNCaP and/or VCaP cells) of Tables 2A, 2B, and 2C are as follows: A<1 nM; 1≤B<10 nM; 10≤C<100 nM; D≥100 nM. Dmax (%) categories (degradation of AR ELISA in LNCaP and/or VCaP cells) of Table 2 are as follows: A≥70; 50≤B<70; C<50

Turning to `COc1cc(O[C@H]2C[C@H](N(C)CC3CCN(c4ccc(C(=O)N[C@H]5C(C)(C)[C@H](Oc6cc(C)c(C#N)c(C)c6)C5(C)C)cc4)CC3)C2)cc2c1C(=O)N(C1CCC(=O)NC1=O)C2=O` (mixture of isomers) [compound 191, rac-N-((1r,3r)-3-(4-cyano-3,5-dimethylphenoxy)-2,2,4,4-tetramethylcyclobutyl)-4-(4-((((1r,3r)-3-((2-(2,6-dioxopiperidin-3-yl)-7-methoxy-1,3-dioxoisoindolin-5-yl)oxy)cyclobutyl) (methyl)amino)methyl)piperidin-1-yl)benzamide], the 50% degradation concentration (DC50) was less than 1 nM.

On to `[2H]C([2H])([2H])Oc1cc(O[C@H]2C[C@H](N(CC3CCN(c4cnc(C(=O)N[C@H]5C(C)(C)[C@H](Oc6cc(C)c(C#N)c(C)c6)C5(C)C)cn4)CC3)C(C)C)C2)cc2c1C(=O)N(C1CCC(=O)NC1=O)C2=O` (mixture of isomers) [compound 195, rac-N-((1r,3r)-3-(4-cyano-3,5-dimethylphenoxy)-2,2,4,4-tetramethylcyclobutyl)-5-(4-((((1r,3r)-3-((2-(2,6-dioxopiperidin-3-yl)-7-(methoxy-d3)-1,3-dioxoisoindolin-5-yl)oxy)cyclobutyl) (isopropyl)amino)methyl)piperidin-1-yl)pyrazine-2-carboxamide], for which the 50% degradation concentration (DC50) was less than 1 nM.

As to `COc1cc(O[C@H]2C[C@H](OC3CCN(c4ccc(C(=O)N[C@H]5C(C)(C)[C@H](Oc6cc(C)c(C#N)c(C)c6)C5(C)C)cc4)CC3)C2)cc2c1C(=O)N(C1CCC(=O)NC1=O)C2=O` (mixture of isomers) [compound 197, rac-N-((1r,3r)-3-(4-cyano-3,5-dimethylphenoxy)-2,2,4,4-tetramethylcyclobutyl)-4-(4-((1r,3r)-3-((2-(2,6-dioxopiperidin-3-yl)-7-methoxy-1,3-dioxoisoindolin-5-yl)oxy)cyclobutoxy)piperidin-1-yl)benzamide], the half-maximal degradation concentration (DC50) was less than 1 nM.

For `CC(C)N(CC1CN(c2ccc(C(=O)N[C@H]3C(C)(C)[C@H](Oc4ccc(C#N)c(Cl)c4)C3(C)C)cc2)C1)[C@H]1C[C@H](Oc2ccc3c(c2)C(=O)N(C2CCC(=O)NC2=O)C3=O)C1` (mixture of isomers) [compound 198, rac-N-((1r,3r)-3-(3-chloro-4-cyanophenoxy)-2,2,4,4-tetramethylcyclobutyl)-4-(3-((((1r,3r)-3-((2-(2,6-dioxopiperidin-3-yl)-1,3-dioxoisoindolin-5-yl)oxy)cyclobutyl) (isopropyl)amino)methyl)azetidin-1-yl)benzamide], the 50% degradation concentration (DC50) is less than 1 nM.

Turning to `Cc1cc(O[C@H]2C(C)(C)[C@H](NC(=O)c3c(C)nc(N4CCC(CN(C(C)C)[C@H]5C[C@H](Oc6ccc7c(c6)C(=O)N(C6CCC(=O)NC6=O)C7=O)C5)CC4)nc3C)C2(C)C)cc(C)c1C#N` (mixture of isomers) [compound 200, rac-N-((1r,3r)-3-(4-cyano-3,5-dimethylphenoxy)-2,2,4,4-tetramethylcyclobutyl)-2-(4-((((1r,3r)-3-((2-(2,6-dioxopiperidin-3-yl)-1,3-dioxoisoindolin-5-yl)oxy)cyclobutyl) (isopropyl)amino)methyl)piperidin-1-yl)-4,6-dimethylpyrimidine-5-carboxamide], the DC50 is less than 1 nM.

Take `[2H]C([2H])([2H])Oc1cc(O[C@H]2C(C)(C)[C@H](NC(=O)c3cnc(N4CCC(CN(C(C)C)[C@H]5C[C@H](Oc6cc(OC([2H])([2H])[2H])c7c(c6)C(=O)N(C6CCC(=O)NC6=O)C7=O)C5)CC4)cn3)C2(C)C)ccc1C#N` (mixture of isomers) [compound 202, rac-N-((1r,3r)-3-(4-cyano-3-(methoxy-d3)phenoxy)-2,2,4,4-tetramethylcyclobutyl)-5-(4-((((1r,3r)-3-((2-(2,6-dioxopiperidin-3-yl)-7-(methoxy-d3)-1,3-dioxoisoindolin-5-yl)oxy)cyclobutyl) (isopropyl)amino)methyl)piperidin-1-yl)pyrazine-2-carboxamide]: the half-maximal degradation concentration (DC50) is less than 1 nM.

For `[2H]C([2H])([2H])Oc1cc(O[C@H]2C[C@H](N(CC3CCN(c4cnc(C(=O)N[C@H]5C(C)(C)[C@H](Oc6ccc(C#N)c(OC)c6)C5(C)C)cn4)CC3)C(C)C)C2)cc2c1C(=O)N(C1CCC(=O)NC1=O)C2=O` (mixture of isomers) [compound 203, rac-N-((1r,3r)-3-(4-cyano-3-methoxyphenoxy)-2,2,4,4-tetramethylcyclobutyl)-5-(4-((((1r,3r)-3-((2-(2,6-dioxopiperidin-3-yl)-7-(methoxy-d3)-1,3-dioxoisoindolin-5-yl)oxy)cyclobutyl) (isopropyl)amino)methyl)piperidin-1-yl)pyrazine-2-carboxamide], the half-maximal degradation concentration (DC50) is less than 1 nM.

Regarding `CC(C)N(CC1CCN(c2cnc(C(=O)N[C@H]3C(C)(C)[C@H](Oc4ccc(C#N)c(Cl)c4)C3(C)C)cn2)CC1)[C@H]1C[C@H](Oc2cccc3c2CN(C2CCC(=O)NC2=O)C3=O)C1` (mixture of isomers) [compound 208, rac-N-((1r,3r)-3-(3-chloro-4-cyanophenoxy)-2,2,4,4-tetramethylcyclobutyl)-5-(4-((((1r,3r)-3-((2-(2,6-dioxopiperidin-3-yl)-1-oxoisoindolin-4-yl)oxy)cyclobutyl) (isopropyl)amino)methyl)piperidin-1-yl)pyrazine-2-carboxamide], the 50% degradation concentration (DC50) was less than 1 nM.

For the compound `COc1cc(O[C@H]2C(C)(C)[C@H](NC(=O)c3c(C)nc(N4CCC(CN(C(C)C)[C@H]5C[C@H](Oc6ccc7c(c6)C(=O)N(C6CCC(=O)NC6=O)C7=O)C5)CC4)nc3C)C2(C)C)ccc1C#N` (mixture of isomers) [compound 211, rac-N-((1r,3r)-3-(4-cyano-3-methoxyphenoxy)-2,2,4,4-tetramethylcyclobutyl)-2-(4-((((1r,3r)-3-((2-(2,6-dioxopiperidin-3-yl)-1,3-dioxoisoindolin-5-yl)oxy)cyclobutyl) (isopropyl)amino)methyl)piperidin-1-yl)-4,6-dimethylpyrimidine-5-carboxamide], the DC50 is less than 1 nM.

As for `Cc1cc(O[C@H]2C(C)(C)[C@H](NC(=O)c3cnc(N4CCC(CN(C(C)C)[C@H]5C[C@H](Oc6ccc7c(c6)C(=O)N(C6CCC(=O)NC6=O)C7)C5)CC4)cn3)C2(C)C)cc(C)c1C#N` (mixture of isomers) [compound 212, rac-N-((1r,3r)-3-(4-cyano-3,5-dimethylphenoxy)-2,2,4,4-tetramethylcyclobutyl)-5-(4-((((1r,3r)-3-((2-(2,6-dioxopiperidin-3-yl)-3-oxoisoindolin-5-yl)oxy)cyclobutyl) (isopropyl)amino)methyl)piperidin-1-yl)pyrazine-2-carboxamide], the DC50 was less than 1 nM.

Take `COc1cc(O[C@H]2C(C)(C)[C@H](NC(=O)c3ccc(N4CC5(CC(CN(C(C)C)[C@H]6C[C@H](Oc7ccc8c(c7)C(=O)N(C7CCC(=O)NC7=O)C8=O)C6)C5)C4)cc3)C2(C)C)ccc1C#N` (mixture of isomers) [compound 216, rac-N-((1r,3r)-3-(4-cyano-3-methoxyphenoxy)-2,2,4,4-tetramethylcyclobutyl)-4-(6-((((1r,3r)-3-((2-(2,6-dioxopiperidin-3-yl)-1,3-dioxoisoindolin-5-yl)oxy)cyclobutyl) (isopropyl)amino)methyl)-2-azaspiro[3.3]heptan-2-yl)benzamide]: the 50% degradation concentration (DC50) is less than 1 nM.

Regarding `COc1cc(O[C@H]2C[C@H](N(C)CC3CCN(c4cnc(C(=O)N[C@H]5C(C)(C)[C@H](Oc6cc(C)c(C#N)c(C)c6)C5(C)C)cn4)CC3)C2)cc2c1C(=O)N(C1CCC(=O)NC1=O)C2=O` (mixture of isomers) [compound 218, rac-N-((1r,3r)-3-(4-cyano-3,5-dimethylphenoxy)-2,2,4,4-tetramethylcyclobutyl)-5-(4-((((1r,3r)-3-((2-(2,6-dioxopiperidin-3-yl)-7-methoxy-1,3-dioxoisoindolin-5-yl)oxy)cyclobutyl) (methyl)amino)methyl)piperidin-1-yl)pyrazine-2-carboxamide], the half-maximal degradation concentration (DC50) was less than 1 nM.

For `COc1cc(O[C@H]2C[C@H](N3CCOC4(CCN(c5ccc(C(=O)N[C@H]6C(C)(C)[C@H](Oc7cc(C)c(C#N)c(C)c7)C6(C)C)cc5)CC4)C3)C2)cc2c1C(=O)N(C1CCC(=O)NC1=O)C2=O` (mixture of isomers) [compound 220, rac-N-((1r,3r)-3-(4-cyano-3,5-dimethylphenoxy)-2,2,4,4-tetramethylcyclobutyl)-4-(4-((1r,3r)-3-((2-(2,6-dioxopiperidin-3-yl)-7-methoxy-1,3-dioxoisoindolin-5-yl)oxy)cyclobutyl)-1-oxa-4,9-diazaspiro[5.5]undecan-9-yl)benzamide], the half-maximal degradation concentration (DC50) is less than 1 nM.
